Results from patent US20260151620A1, “IMPLANT MEDICAL DEVICES” (Case Western Reserve University, priority 2021, published 2026).

Experiment: In vitro drug release from drug-loaded titania nanotube arrays (TNAs) in PBS at 37° C.
Type: physicochemical
Procedure: A total of 500 μL of DEX solution was pipetted onto the nanotube surface (pipetting 100 μL for 5 times) and allowed to dry in fume hood for an hour, ensuring that the nanotube array surface was completely dry prior to each pipetting and the release studies. Then, DEX-loaded TNA samples were immersed in Eppendorf tubes containing 100 μL of PBS (1× phosphate buffered saline) and were placed in a water bath kept at 37° C. For release measurements, all 100 μL from each releasing sample tube was transferred to a 96-well plate and measured using a SpectraMax M 2 Microplate Reader. The absorption of DEX was measured at 244 nm. After each measurement, the releasing medium was fully replaced with […] of fresh PBS.

[1] = 37° C., TNAs on polyimide and foil substrates
[2] = 37° C., TNAs on polyimide and foil substrates, PBS

burst after contacting the PBS [1]	release profile [2]	release profile (37° C., ~0.5 μm-deep, 100 nm-diameter TNAs on polyimide)	relationship between nanotube diameter and release rate (nanotube diameters within the 30 nm-100 nm range)	difference in release data between the two drug loading methods (normal pipetting vs soaking)	duration of linear release [2]	duration of sustained release (TNA 2 micron long, 30 nm pore size, 37° C. (FIG. 6B))	SMILES
no indication of a large burst	linear	linear	weak relationship	No significant difference			C[C@@H]1C[C@H]2[C@@H]3CCC4=CC(=O)C=C[C@]4(C)[C@@]3(F)[C@@H](O)C[C@]2(C)[C@@]1(O)C(=O)COP(=O)(O)O [Dexamethasone, dexamethasone sodium phosphate]
no indication of a large burst	linear				several weeks	nearly one month	Oc1ccc(C=Cc2cc(O)cc(O)c2)cc1 [Resveratrol]
